From ChEMBL document CHEMBL3879913, “NMDA receptor modulators and uses related thereto” (2014)

Target: Glutamate NMDA receptor; Grin1/Grin2c (Rattus norvegicus) (UniProt P35439+Q00961)
Test: Modulation of recombinant rat GluN1/GluN2C expressed in Xenopus laevis oocytes assessed as potentiation of glycine/glutamate-induced current by measuring receptor response at 100 uM by two-electrode voltage-clamp method relative to control
Assay type: cell-based

Row | SMILES | Activity [%]
1 | COC(=O)c1ccc(C2C(C(=O)c3ccncc3)=C(O)C(=O)N2CCc2ccncc2)cc1 (configuration not stated) | 97
2 | COC(=O)c1ccc(C2C(C(=O)c3ccncc3)=C(O)C(=O)N2CCc2c[nH]cn2)cc1 (configuration not stated) | 84
